US20240269094A1, “Treatment of canine dermatitis and skin irritation” (priority 2023, published 2024)
“Also recorded” adds a separate entry of the source. Like-named read-outs stand apart in the source and are kept apart here. One block for each compound: values may come before it.

Assays:
[1] = system: oral cavity; settings: 100 ppm in 5% sucrose; scale of 0 to 9 units; Johnson, 2018; cited from earlier work
[2] = system: philtrum skin; assay: Philtrum (skin) bioassay of cooling; type: in vivo, human
Method: FIG. 5. The philtrum bioassay. Cooling agents, prepared as a or in solution are applied to the philtrum skin. Cooling intensity is rated on a scale of 0 to 3, with 0=no changes in sensation, 1=a slight feeling of coolness, cold or tingling, 2=a clearcut feeling of coolness of cold, and 3=a robust feeling of coolness of cold. The duration of cooling was recorded until two zeroes were measured 10 min apart.
TRPM8 EC50 Receptor Assay. […] A receptor assay is a standard tool and can be done quickly. For example, in a 384-plate assay, you can easily test 10 compounds and get dose-response data. For a chemical agonist, an in vitro TRPM8 assay generates an EC50 (median effective concentration). But the quantitative correlation between the EC50 on TRPM8 and cooling sensation was vague. That is, the science was “roughly” predictive, but there was considerable uncertainty for each agonist. […] Philtrum (Skin) Assay. For cooling sensations on the skin, it is necessary to test the substance on the skin. Wei proposed the use of the skin on the philtrum as a test site for cooling activity of chemicals (FIG. 5). The test substance is dissolved in a carrier, such as solvent, gel, or ointment and applied to the philtrum, a surface area of […]. The subject records sensations on the philtrum and environs as:
The subject is given a form to record observations and instructions to mark sensations on the philtrum and environs as: 0=no changes in sensation, 1=a slight feeling of coolness, cold, or tingling, 2=a clearcut feeling of coolness or cold, and 3=a robust feeling of coolness and cold.
The intervals for measurements are usually at 5, to 15 min after application, until two successive zeros are obtained. The philtrum application site is the midline groove above the upper lip border and vermilion. The gel is placed on the philtrum with a cotton-tipped applicator up to the nasolabial folds and sometimes, but not deliberately, on the lower nostrils (subnasale). Cold receptors densely innervate the philtrum skin (FIG. 5), second only to the surfaces of the eyeball and anogenitalia. The lips also have a high density of “cold spots.” Hensel et al. mapped the cold spots on the human face (cited in Dhaka et al., 2008). In animals such as the rat the mystacial pad (nose pad with vibrissae) is abundantly labeled with TRPM8-fibers. “Cold Points” linked to single-unit neuronal discharges can be measured in experimental animals. Wei has direct experience in such experiments (Poree et al., 1989).
Dip a cotton-tipped applicator (Puritan Cotton-tipped applicators, or Q-Tips) into a reservoir bottle containing the liquid or semi-liquid (gel) test substance. The composition adhering to the cotton (about 0.1 mL) is put on the skin. The philtrum site is shown in a cartoon. A subject can practice the method in front of a mirror with a high-intensity light source. Results for test on the philtrum are in Table 8 and FIG. 5. See data in FIG. 6. Cooling agents, prepared as an 8% wt./vol. gel, was tested topically on the philtrum skin assay. The duration of cooling was recorded (min on y-axis). The startling activity of FEMA 4557, cooling for ˜3 hr, was unexpected and surprising. FEMA 3784 is also known as Cool 10 or menthoxypropanediol. […]

[3] = target: T1, TRPA1 (Homo sapiens, UniProt O75762); settings: Johnson et al. 2018; applicant could not repeat; cited from earlier work
T1 construct: expressed in transfected cells
T1 sequence (O75762 whole entry, species assumed): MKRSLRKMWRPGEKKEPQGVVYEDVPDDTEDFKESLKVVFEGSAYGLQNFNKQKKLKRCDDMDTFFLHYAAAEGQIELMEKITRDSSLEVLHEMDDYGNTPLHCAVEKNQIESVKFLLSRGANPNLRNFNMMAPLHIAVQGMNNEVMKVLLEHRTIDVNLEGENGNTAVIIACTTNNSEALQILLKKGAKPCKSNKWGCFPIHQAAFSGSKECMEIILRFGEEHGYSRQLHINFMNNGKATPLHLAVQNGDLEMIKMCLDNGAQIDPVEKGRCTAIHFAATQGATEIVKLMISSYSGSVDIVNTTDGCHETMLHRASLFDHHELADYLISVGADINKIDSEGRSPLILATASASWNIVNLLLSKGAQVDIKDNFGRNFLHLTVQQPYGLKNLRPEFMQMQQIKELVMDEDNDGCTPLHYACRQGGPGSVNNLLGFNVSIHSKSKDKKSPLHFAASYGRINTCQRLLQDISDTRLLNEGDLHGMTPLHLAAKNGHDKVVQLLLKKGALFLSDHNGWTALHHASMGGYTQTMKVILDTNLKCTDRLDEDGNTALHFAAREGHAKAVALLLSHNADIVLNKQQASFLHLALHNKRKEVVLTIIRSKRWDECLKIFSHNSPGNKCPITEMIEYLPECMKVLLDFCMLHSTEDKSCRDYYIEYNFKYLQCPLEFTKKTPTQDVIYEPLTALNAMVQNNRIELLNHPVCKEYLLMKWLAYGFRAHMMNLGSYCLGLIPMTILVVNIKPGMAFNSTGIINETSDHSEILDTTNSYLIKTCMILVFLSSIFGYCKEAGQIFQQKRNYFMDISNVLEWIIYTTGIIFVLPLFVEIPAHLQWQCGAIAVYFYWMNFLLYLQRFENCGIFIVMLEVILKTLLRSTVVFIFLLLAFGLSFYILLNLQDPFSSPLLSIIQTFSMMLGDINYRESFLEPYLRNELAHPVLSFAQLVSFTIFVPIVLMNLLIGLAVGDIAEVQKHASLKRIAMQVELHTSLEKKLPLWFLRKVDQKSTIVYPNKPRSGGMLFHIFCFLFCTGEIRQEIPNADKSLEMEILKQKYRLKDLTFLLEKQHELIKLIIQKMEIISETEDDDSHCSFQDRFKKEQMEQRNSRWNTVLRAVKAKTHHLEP

[4] = target: T1, TRPA1; assay: Bioassay in cells transfected with TRPA1 (FIG. 4); type: cell-based
Excerpt: (§1) FIG. 4 Bioassay of FEMA 4557 (labeled as BUDA on the graph) in TRPM8 and TRPA1. Data from the laboratory of Prof. Seok-Yong Lee at Duke University.
(§2) FIG. 4 Bioassay of FEMA 4557 (labeled as BUDA) in TRPM8 and TRPA1. Data of Prof. Seok-Yong Lee at Duke University.

[5] = system: canine dermatitis, scratching and licking; assay: Topical treatment of canine skin irritation (case studies); type: in vivo, dog; settings: 32% wt/vol liquid in 1,2-propanediol, 4% ethanol, 4% l-menthol
[6] = target: T2, TRPM8 (Homo sapiens, UniProt Q7Z2W7); assay: Bioassay of FEMA 4557 in TRPM8 (laboratory of Prof. Seok-Yong Lee, FIG. 4); type: cell-based
T2 sequence (Q7Z2W7 whole entry, species assumed): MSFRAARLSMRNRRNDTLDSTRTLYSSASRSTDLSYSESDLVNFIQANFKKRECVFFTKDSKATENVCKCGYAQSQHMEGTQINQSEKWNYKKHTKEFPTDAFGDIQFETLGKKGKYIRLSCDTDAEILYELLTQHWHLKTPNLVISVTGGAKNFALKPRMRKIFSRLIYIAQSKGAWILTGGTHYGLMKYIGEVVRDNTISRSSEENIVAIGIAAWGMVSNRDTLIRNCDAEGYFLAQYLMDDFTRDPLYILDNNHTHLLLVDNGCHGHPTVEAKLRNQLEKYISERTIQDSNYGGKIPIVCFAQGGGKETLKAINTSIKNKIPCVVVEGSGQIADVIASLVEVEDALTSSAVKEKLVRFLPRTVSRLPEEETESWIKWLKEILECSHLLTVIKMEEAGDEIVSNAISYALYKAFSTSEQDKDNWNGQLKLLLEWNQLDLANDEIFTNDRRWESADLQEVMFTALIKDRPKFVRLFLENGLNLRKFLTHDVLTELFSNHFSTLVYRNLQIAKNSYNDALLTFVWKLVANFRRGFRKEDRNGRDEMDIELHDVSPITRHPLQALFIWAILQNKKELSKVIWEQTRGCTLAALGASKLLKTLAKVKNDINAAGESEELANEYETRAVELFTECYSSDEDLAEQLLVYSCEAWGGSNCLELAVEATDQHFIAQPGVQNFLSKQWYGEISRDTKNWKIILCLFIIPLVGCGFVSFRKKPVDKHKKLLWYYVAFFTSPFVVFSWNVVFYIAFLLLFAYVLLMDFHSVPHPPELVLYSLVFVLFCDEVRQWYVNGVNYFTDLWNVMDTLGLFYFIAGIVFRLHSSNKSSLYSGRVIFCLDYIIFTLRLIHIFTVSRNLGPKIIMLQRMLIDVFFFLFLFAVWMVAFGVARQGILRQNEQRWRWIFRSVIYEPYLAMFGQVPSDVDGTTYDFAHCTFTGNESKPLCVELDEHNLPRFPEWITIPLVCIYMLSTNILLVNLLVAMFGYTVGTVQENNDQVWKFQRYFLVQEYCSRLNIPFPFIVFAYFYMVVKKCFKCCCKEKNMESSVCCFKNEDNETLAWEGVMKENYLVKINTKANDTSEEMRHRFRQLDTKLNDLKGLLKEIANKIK
Excerpt: as §1, §2

[7] = Comparison of classes of cooling agents for applications on the canine skin (grades); set-up: species or system dog; key: A = excellent; B = average; C = poor; F = does not work; settings: grade
Excerpt: Here are comments on grades assigned to specific classes of cooling agents (Table 3). […] The p-menthane carboxamides cover a wide range of compounds, but they are difficult for skin formulation to achieve a long duration of action. Menthol is short-acting and irritating, especially when it is near the ocular surface. The 1-dialkylphosphorylalkane known as DIPA1-7 (Cryosim-1, 1-dialkylphosphorylheptane) is an excellent skin agent, but costs are high for dermatological applications.

[8] = system: canine dermatitis, scratching and licking; assay: Topical treatment of canine skin irritation (case studies); type: in vivo, dog
Method: The Applicant gave the dog's owner an airless pump dispenser containing 8% wt/vol of FEMA 4557 dispersed in 4 mg/ml of carbapol 980, formulated with 1% ethanol and 1% menthol, and instructed him to apply the gel to the skin of the dog's belly and groin.
A twelve-year-old West Highland Terrier had periodic episodes of seasonal skin allergy. […] The owner of the dog, who had access to a pharmacy, applied nystatin ointment and a potent skin steroid cream containing […].
Next, a 20% wt/vol FEMA 4557 solution, dissolved in propylene glycol, was applied to the interdigital folds of the paws with a cotton-tipped applicator (FIG. 9).

[9] = system: tongue; assay: Oral cavity screen: 15 mg of crystals on the dorsal surface of the tongue; type: in vivo, human
Method: In this discovery, sensory activity in the oral cavity was the first screen. The goal was to identify candidates producing unusual sensations. Test agents, prepared as 15 mg of white crystals, were placed on the dorsal surface of the tongue. The chemical structures and identifying characteristics are in Table 1. […] Related cooling agents were not freezing cold, except for WS-23.

[10] = target: T2, TRPM8; set-up: EC50; other: Johnson, 2.2/2.2; settings: Ref. 5 (Johnson et al., 2018); cited from earlier work
[11] = target: T3, TRPM8 (Mus musculus, UniProt Q8R4D5); settings: Ref. 2 (Behrendt et al., 2004); cited from earlier work
T3 sequence (Q8R4D5 whole entry): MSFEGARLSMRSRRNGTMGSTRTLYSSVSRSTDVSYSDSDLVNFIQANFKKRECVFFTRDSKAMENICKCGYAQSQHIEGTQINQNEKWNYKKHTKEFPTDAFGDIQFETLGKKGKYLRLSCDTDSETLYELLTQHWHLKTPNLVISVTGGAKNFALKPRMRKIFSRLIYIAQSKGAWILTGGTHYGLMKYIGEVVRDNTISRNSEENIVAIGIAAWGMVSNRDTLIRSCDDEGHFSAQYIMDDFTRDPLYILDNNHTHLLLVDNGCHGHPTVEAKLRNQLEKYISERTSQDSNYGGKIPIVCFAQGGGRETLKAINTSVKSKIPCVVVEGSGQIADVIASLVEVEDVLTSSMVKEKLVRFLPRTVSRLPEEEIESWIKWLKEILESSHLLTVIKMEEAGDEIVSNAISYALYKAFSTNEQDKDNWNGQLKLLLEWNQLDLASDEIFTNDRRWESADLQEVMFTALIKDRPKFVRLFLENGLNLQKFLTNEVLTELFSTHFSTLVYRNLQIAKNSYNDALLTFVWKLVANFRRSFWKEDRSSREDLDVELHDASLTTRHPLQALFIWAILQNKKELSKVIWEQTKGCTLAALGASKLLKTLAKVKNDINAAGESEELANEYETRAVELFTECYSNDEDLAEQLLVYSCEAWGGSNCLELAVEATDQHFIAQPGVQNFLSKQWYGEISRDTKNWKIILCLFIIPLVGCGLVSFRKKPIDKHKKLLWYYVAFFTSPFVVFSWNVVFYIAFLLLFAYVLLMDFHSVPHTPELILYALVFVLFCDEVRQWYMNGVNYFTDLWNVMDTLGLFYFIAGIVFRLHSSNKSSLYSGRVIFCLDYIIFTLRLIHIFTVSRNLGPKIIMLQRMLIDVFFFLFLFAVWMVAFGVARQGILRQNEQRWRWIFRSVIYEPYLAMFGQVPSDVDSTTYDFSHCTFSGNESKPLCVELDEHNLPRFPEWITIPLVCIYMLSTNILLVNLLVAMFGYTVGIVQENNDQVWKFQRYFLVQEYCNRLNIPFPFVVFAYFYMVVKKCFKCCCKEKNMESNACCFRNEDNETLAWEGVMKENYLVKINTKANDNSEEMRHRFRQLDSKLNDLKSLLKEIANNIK

[12] = target: T4, TRPM8 (Rattus norvegicus, UniProt Q8R455); assay: TRPM8 in vitro assay, EC50 of cooling agents (published data, Table 5 / FIG. 3); type: cell-based; set-up: EC50; other: Sherkheli, 196/1500; settings: Sherkheli, 196/1500
Excerpt: (§3) FIG. 3. Median Effective Dose (EC50) of various cooling agents in TRPM8 in vitro assay.
(§4) A receptor assay is a standard tool and can be done quickly. For example, in a 384-plate assay, you can easily test 10 compounds and get dose-response data. For a chemical agonist, an in vitro TRPM8 assay generates an EC50 (median effective concentration). But the quantitative correlation between the EC50 on TRPM8 and cooling sensation is not always clear. That is, the language of receptor identification and potency was “roughly” predictive, but there was considerable uncertainty for each agonist. […] Table 5 summarizes results on TRPM8 EC50 (see FIG. 3). The specific references for each value are: […] The full citations are listed in the References. Leffingwell. Ref. 4 gives the FEMA numbers for each compound.
(§5) FIG. 3. Median Effective Dose (EC50) of various cooling agents in TRPM8 in vitro assay. […] The Ref. No. in Table 5 are to: 1=McKemy et al., 2002; 2=Behrendt et al., 2004; 3=Bodding et al., 2007; 4=Sherkheli et al., 2010; and 5=Johnson et al., 2018.
(§6) TRPM8 EC50 Receptor Assay. […] A receptor assay is a standard tool and can be done quickly. […] But the quantitative correlation between the EC50 on TRPM8 and cooling sensation was vague. […]

[13] = target: T3, TRPM8; assay: as above; type: cell-based; settings: Behrendt et al., 4.1/44
Excerpt: as §3, §4, §5, §6

[14] = target: T2, TRPM8; assay: as above; type: cell-based; set-up: EC50; other: Johnson, 2.2/2.2; settings: Johnson, 2.2/2.2
Excerpt: as §3, §4, §5, §6

[15] = target: T4, TRPM8; set-up: EC50; other: Sherkheli, 196/1500; settings: Ref. 4 (Sherkheli et al., 2010); cited from earlier work
[16] = 8% wt/vol gel with ethanol, 1,2-propanediol, carbomer and dispersing agent or 0.2% DIPA-1-7 initiator
[17] = topical liquid or gel, Table 11

- EC50 potency relative to l-menthol ([6]; FIG. 4): about 1/30
- EC50 ([6]; FIG. 4, estimated): 410 µM
- activity on TRPM8 as % of the activity of l-menthol ([6]; further experiments by the applicant): 10%
- potency relative to menthol ([6]; tests by Prof Lee (FIG. 4)): < 0.1
SMILES: CCNC(=O)C(CC)(C(C)C)C(C)C [FEMA 4557, N-ethyl-2,2-diisopropylbutanamide]
- Cooling Intensity Oral Cavity Scaled [1]: 3.3
- average time of cooling ([2]; 8% concentration): ≥ 175 min
- Duration of cooling ([2]; 8% wt./vol. gel, FIG. 6): ~3 h
- Comments: quality of sensation on philtrum skin ([2]; 8% wt/vol): icy cold sensations, prolonged cooling,
- duration of effect of topical gel [2, 16]: ≥ 3 h
- onset of topical gel [2, 16]: less than 3 min
- Duration of cooling ([2]; 8% wt/vol on philtrum): 180+ min
- total therapeutic duration ([2]; 16 to 32%): at least 6 hr
- after effect: further cooling on the skin ([2]; 16 to 32%, revealed by warm towel): 3 h
- cooling duration compared to menthol ([2]; >180/25): > 7 fold
- Duration-Skin ([2]; Wei, Table 6, see FIG. 6): 3+ Hours
- Duration of cooling ([2]; concentrations ≥5%, FIG. 7): ≥ 1 h
- skin tissue irritation or inflammation ([2]; concentrations ≥5%, up to 50% wt/vol): not observed or detected
- average time of cooling ([2]; first concentration of '2.4 and 8%' (2%)): 50 min
- effective concentration for topical activity on the skin ([2]; in vivo): ≥ 5%
- average time of cooling ([2]; second concentration of '2.4 and 8%' (4%)): 95 min
- Duration of cooling ([2]; single dose of the 16 to 32% solution): ~3 h
- sensation on the philtrum ([2]; solution at ≥64%): pleasant and robust cool
- adverse sensations of stinging cold ([2]; solution at ≥64% on the philtrum): No cold stinging sensations were felt
- tolerability on the skin ([2]; solutions of ≥32%): well-tolerated
- Onset [2, 17]: ~10 min
- activity on TRPA1 as reported in literature [3]: activates TRPA1
- activity on TRPA1 [4]: absence of activity; also recorded: not active
- effect on scratching and rashes [5]: effective for scratching caused by bites of ectoparasites and rashes caused by yeast infection
- Absence of Irritancy [7]: A
- Potency [7]: C
- Rapid Onset [7]: B
- Safety in Use [7]: A
- Sufficient Duration [7]: A+
- scratching and licking ([8]; Study 2, Dachshund, 8% wt/vol gel on belly and groin, within one day): scratching and licking were reduced
- redness and swelling ([8]; Study 2, after three days of daily application of 8% gel): the redness and swelling disappeared
- licking of paws ([8]; Study 3, 20% wt/vol solution in propylene glycol on interdigital folds): stopped licking its front paws
- scratching ([8]; Study 3, West Highland Terrier, 8% gel on groin, hindquarters, perianal area): stopped the scratching
- signs of skin discomfort ([8]; Study 3, after five days of treatment): All signs of skin discomfort disappeared
- anti-itch effect of topical formulations ([8]; topical gel or solution, insect bites, dermatitis, allergies): effectively treated the itch; also recorded: anti-itch effects on flea bites and other skin
- Side-effects [8, 17]: None observed
- Effects of 15 mg on tongue: duration [9]: > 35 min
- Effects of 15 mg on tongue: sensation [9]: stinging, freezing, and painful cold on the throat; also recorded: stinging, painful freezing cold in throat
- Effects of 15 mg on tongue: sensation ([9]; listed as 4557): stinging, painful cold
- EC50 [10]: 1.6 µM

- potency relative to menthol (TRPM8 EC50 ratio) [12]: 0.13
- potency relative to menthol (TRPM8 EC50 ratio) [13]: 0.09
- potency relative to menthol (TRPM8 EC50 ratio) [14]: 1
SMILES: CNC(=O)C(C)(C(C)C)C(C)C [WS-23]
- EC50 [11]: 44 µM
- Cooling Intensity Oral Cavity Scaled [1]: 2.25
- Duration of cooling ([2]; 8% wt/vol on philtrum): 0.417 ± 0.05 h
- EC50 [15]: 1500 µM
- Effects of 15 mg on tongue: duration [9]: ~18 min
- Effects of 15 mg on tongue: sensation [9]: painful cold in throat
- EC50 [10]: 2.2 µM
